Our source for the Activity and inhibition values is ChEMBL document CHEMBL1221220, “Transport and signaling via the amino acid binding site of the yeast Gap1 amino acid transceptor” (Nat Chem Biol, 2009).

Test [1] deals with T1, General amino-acid permease GAP1 (Saccharomyces cerevisiae), P19145 [L387C].
T1 sequence (whole entry): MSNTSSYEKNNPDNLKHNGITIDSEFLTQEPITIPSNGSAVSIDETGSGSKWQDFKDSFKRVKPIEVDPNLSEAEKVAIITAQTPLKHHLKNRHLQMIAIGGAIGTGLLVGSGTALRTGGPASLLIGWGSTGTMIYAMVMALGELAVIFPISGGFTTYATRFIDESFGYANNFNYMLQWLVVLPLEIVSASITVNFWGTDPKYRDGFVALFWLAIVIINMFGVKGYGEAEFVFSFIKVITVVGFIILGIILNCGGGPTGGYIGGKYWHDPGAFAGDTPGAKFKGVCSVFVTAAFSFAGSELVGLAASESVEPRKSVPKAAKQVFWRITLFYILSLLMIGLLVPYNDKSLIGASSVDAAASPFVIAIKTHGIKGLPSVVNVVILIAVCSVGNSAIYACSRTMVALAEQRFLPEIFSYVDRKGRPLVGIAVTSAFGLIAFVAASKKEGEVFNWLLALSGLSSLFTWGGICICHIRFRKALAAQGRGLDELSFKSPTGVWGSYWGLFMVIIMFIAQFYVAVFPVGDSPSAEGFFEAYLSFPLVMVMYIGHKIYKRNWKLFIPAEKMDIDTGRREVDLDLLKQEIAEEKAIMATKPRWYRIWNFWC
Description: Activation of yeast Gap1 L387C mutant-mediated amino acid uptake at 10 mM.

The test system of test [2] is T2, General amino-acid permease GAP1 (Saccharomyces cerevisiae), P19145 [N391C].
T2 sequence (whole entry): T1 sequence (whole entry) with C387L, N391C
Description: Induction of yeast Gap1 N391C mutant-mediated trehalose activation at 10 mM.

Test [3] relates to General amino-acid permease GAP1 (Saccharomyces cerevisiae), P19145 [S392C]. As to the kind of experiment: Inhibition of yeast Gap1 S392C mutant-mediated trehalose activation at 10 mM.
Test [4] has as its system T3, General amino-acid permease GAP1 (Saccharomyces cerevisiae), P19145 [A405C].
T3 sequence (whole entry): T1 sequence (whole entry) with C387L, A405C
As to the kind of experiment: Induction of yeast Gap1 A405C mutant-mediated […] activation at 2 mM in presence of 10 mM MTSEA treated before compound addition.

The test system of test [5] is T4, General amino-acid permease GAP1 (Saccharomyces cerevisiae), P19145 [A385C].
T4 sequence (whole entry): T1 sequence (whole entry) with A385C, C387L
Description: Induction of yeast Gap1 A385C mutant-mediated amino acid uptake at 2 mM in presence of 10 mM MTSEA treated before compound addition.

Each structure is given as a SMILES string. Residue numbers refer to the chain shown, from its start. Activity calls are given as the source filed them. The rule behind the calls is not given here.

General amino-acid permease GAP1 (Saccharomyces cerevisiae), P19145 [S392C], sequence (P19145 whole entry S392C): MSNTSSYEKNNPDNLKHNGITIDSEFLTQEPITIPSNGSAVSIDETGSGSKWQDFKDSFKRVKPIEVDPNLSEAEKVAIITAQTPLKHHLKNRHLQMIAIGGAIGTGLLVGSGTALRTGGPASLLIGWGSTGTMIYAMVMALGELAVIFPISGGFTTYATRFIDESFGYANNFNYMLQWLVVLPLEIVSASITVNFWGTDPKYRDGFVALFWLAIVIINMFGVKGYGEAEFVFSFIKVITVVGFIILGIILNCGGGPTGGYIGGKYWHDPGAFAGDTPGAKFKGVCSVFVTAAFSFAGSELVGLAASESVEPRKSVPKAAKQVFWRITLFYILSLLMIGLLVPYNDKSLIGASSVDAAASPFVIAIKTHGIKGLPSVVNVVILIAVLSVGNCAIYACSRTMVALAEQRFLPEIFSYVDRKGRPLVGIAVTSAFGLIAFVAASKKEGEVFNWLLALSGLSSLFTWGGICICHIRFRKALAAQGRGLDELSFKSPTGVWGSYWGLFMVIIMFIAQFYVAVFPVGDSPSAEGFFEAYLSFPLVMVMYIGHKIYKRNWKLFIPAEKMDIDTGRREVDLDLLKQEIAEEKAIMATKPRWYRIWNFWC

On to `NC(=O)NCCC[C@H](N)C(=O)O`, for which the outcome in test [1] and in test [2] was inactive. For the same molecule, the inhibition entry in test [3] and in test [4] was “Active” each time. Also, the result in test [5] was Active.
